How the values were obtained:
Test in all cases: [32P] S1P Binding Assay
Conditions in all cases: pH 7.5; 4 °C
[1] = target: T1, Sphingosine 1-phosphate receptor 4 (Homo sapiens, UniProt O95977)
T1 sequence (O95977 whole entry): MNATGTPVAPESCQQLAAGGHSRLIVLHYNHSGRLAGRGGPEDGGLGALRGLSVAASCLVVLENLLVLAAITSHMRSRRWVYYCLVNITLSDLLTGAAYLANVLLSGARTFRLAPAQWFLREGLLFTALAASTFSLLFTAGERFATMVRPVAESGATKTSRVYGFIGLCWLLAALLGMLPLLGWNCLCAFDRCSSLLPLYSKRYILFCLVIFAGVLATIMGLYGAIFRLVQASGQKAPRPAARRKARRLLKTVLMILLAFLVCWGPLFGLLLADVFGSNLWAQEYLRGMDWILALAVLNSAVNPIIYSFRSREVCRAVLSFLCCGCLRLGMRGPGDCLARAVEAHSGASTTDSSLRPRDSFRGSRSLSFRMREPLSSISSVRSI

[2] = target: Sphingosine 1-phosphate receptor 1 (Homo sapiens, UniProt P21453)
Sphingosine 1-phosphate receptor 1, sequence (P21453 whole entry): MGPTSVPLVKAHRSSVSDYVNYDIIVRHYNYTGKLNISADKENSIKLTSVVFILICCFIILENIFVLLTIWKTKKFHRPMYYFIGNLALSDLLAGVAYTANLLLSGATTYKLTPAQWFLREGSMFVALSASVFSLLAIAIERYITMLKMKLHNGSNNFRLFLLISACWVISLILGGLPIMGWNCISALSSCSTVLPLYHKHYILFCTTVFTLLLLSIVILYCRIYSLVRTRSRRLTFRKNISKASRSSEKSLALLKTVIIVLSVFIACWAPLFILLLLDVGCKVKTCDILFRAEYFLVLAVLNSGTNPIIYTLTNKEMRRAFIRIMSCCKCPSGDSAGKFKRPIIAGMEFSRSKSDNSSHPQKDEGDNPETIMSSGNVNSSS

[3] = target: Sphingosine 1-phosphate receptor 3 (Homo sapiens, UniProt Q99500)
Sphingosine 1-phosphate receptor 3, sequence (Q99500 whole entry): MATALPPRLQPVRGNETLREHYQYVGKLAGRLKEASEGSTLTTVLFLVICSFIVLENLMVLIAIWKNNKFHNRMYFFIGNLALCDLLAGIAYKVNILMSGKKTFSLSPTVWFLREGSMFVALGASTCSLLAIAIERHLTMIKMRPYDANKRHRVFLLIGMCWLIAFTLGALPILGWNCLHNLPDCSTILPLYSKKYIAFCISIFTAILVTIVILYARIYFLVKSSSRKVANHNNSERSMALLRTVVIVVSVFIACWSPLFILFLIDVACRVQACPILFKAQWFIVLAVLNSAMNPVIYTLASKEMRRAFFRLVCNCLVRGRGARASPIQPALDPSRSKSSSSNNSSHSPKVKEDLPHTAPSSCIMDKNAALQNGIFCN

Row | Ki [1] [nM] | SMILES | Ki [2] [nM] | Ki [3] [nM]
1 | 105 | CCCCCCCCc1ccc(CC[C@@](N)(CO)COP(=O)(O)O)cc1 | – | –
2 | 23 | CCCCCCCCc1ccc(CC[C@](N)(CO)COP(=O)(O)O)cc1 | – | –
3 | 37 | CCCCCCCCc1ccc(CCC(N)(CO)COP(=O)(O)O)cc1 (stereo unspecified) [{2-amino-3-hydroxy-2-[2-(4-octylphenyl)ethyl]propoxy}phosphonic acid] | – | –

Row | SMILES | Ki [1] [nM] | Ki [2] [nM] | Ki [3] [nM]
4 | CCCCCCCCCCCCC/C=C\C(O)C(N)COP(=O)(O)O (stereo unspecified) [{[(4Z)-2-amino-3-hydroxyoctadec-4-en-1-yl]oxy}phosphonic acid] | 2.7 | 1.2 | 5.4
